Values joined by “and” are separate entries in the source; they are usually repeats but may differ in a detail not shown here. Equal entries are not always repeated.
Tested on: T1, GCaMP5-expressing T. gondii
T1 construct: whole extracellular parasites expressing GCaMP5 Ca2+ sensor
Design: species or system GCaMP5-expressing Toxoplasma gondii, extracellular; GCaMP5 fluorescence (cytosolic Ca2+) after 100 uM zaprinast in compound-pretreated extracellular parasites, background-subtracted, relative to zaprinast alone
Conditions: 100 uM zaprinast stimulation, 10 min pretreatment, mean of two replicates, 0.23 h, 10 µM
Procedure, shortened: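 Extracellular GCaMP5-expressing parasites in Ringer's solution were pretreated with compounds (single 10 μM dose, two biological replicates) for 10 min, then stimulated with 100 μM zaprinast at 37 °C for 4 min. Fluorescence read at 485/525 nm, basal subtracted, expressed as fold change relative to zaprinast-only parasites.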

With `COC(=O)Nc1nc2cc(Oc3cccc(NC(=O)Nc4cc(C(F)(F)F)ccc4F)c3)ccc2[nH]1` [GW659386A] the “fold change in fluorescence relative to zaprinast alone” value was 1.116 and 1.187.

Same assay, conditions: 100 uM zaprinast stimulation; 10 min pretreatment; mean of two replicates; 0.23 h

In order of rising “fold change in fluorescence relative to zaprinast alone” value:
1. Nc1ncc(-c2ccc3nccc(-c4ccncc4)c3c2)cc1S(=O)(=O)N1CCCCC1 [GSK1693850A]  0.1427
2. CC(C)(C)c1ccc2nccc(Nc3cccc(O)c3)c2c1 [GW856795X]  0.1562
3. CNc1nccc(-c2c(-c3ccc(F)cc3)ncn2C2CCN(C)CC2)n1 [SB-222903]  0.211
4. NCC(NCc1ccc(-c2ccnc3[nH]ccc23)s1)c1ccccc1 (stereo not drawn) [GSK1321565A]  0.4604
5. CSc1nccc(-c2c(-c3ccc(F)cc3)ncn2CCCN2CCOCC2)n1 [SB-217146-A]  0.6021
6. CCNc1nccc(-c2c(-c3ccc(F)cc3)ncn2C2CCN(C)CC2)n1 [SB-226605]  0.6067
7. CN(C)CCOc1ccc(-c2cc(-c3ccc(Cl)c(O)c3)c(-c3ccncc3)[nH]2)cc1 [SB-684387-B]  0.6076
8. COc1cccc(-c2c[nH]c3c(N/N=C/c4ccncc4)ncnc23)c1 [GW814408X]  0.6391
9. COc1ccc(C2=C(Nc3cccc(C(=O)O)c3)C(=O)NC2=O)cc1 [SB-390765]  0.6431
10. CS(=O)(=O)CCNCc1nc(-c2ccc3ncnc(Nc4ccc(F)c(Cl)c4)c3c2)cs1 [GW461104B]  0.6524
11. c1cc(-c2cnn3nc(N4CCOCC4)ccc23)nc(NC2CC2)n1 [GW708336X]  0.6756
12. COc1ccc(Nc2nccc(N3CCC(NC(=O)C(C)c4ccc(Cl)cc4)C3)n2)cc1 (stereo not drawn) [GSK1379735A]  0.6825
13. O=C(Nc1ccccc1F)NC1CCN(c2ccnc(Nc3ccc(F)cc3)n2)C1 (stereo not drawn) [GSK1379722A]  0.7204
14. NCC(NC(=O)c1cc(-c2ccnc3[nH]ccc23)cs1)c1ccccc1 (stereo not drawn) [GSK1229959A]  0.7412
15. Cc1ccccc1-c1cc(-c2cn[nH]c2-c2ccccn2)ccn1 [GW680061X]  0.8106
16. COc1cc(/C=N/Nc2ncnc3[nH]ncc23)ccc1O [GW578748X]  0.8277
17. FC(F)(F)c1cc(Nc2nccc(-c3c(-c4ccc(Cl)cc4)nn4ncccc34)n2)ccc1Cl [GW829351X]  0.8408
18. c1ccc(-c2nc3n(c2-c2ccc4c(c2)OCO4)CCC3)nc1 [SB-400868-A]  0.8655
19. CCn1c(-c2ccc[nH]c2=O)nc2cnccc21 [SB-736715]  0.9368
20. NS(=O)(=O)c1cccc(-c2cc3ccncc3cc2OCc2ccccc2)c1 [GSK980961A]  0.9595
21. NCC(NC(=O)c1cc(-c2cccnc2)c(-c2ccnc3[nH]ccc23)s1)c1ccccc1 (stereo not drawn) [GSK1323434A]  0.997
22. CC(C)(C)c1ccc(-n2cnc3c(N)ncnc32)cc1 [SKF-97263]  1.008
23. O=S(=O)(CCNCc1ccc(-c2ccc3ncnc(Nc4ccc(OCc5cccc(F)c5)c(Cl)c4)c3c2)o1)c1ccccc1 [GW633459A]  1.016
24. Cc1ccc(O)cc1Nc1ccnc2cc(-c3ccccn3)ccc12 [GW440139B]  1.023
25. CNC(=O)c1sc(-n2cnc3cc(OC)c(OC)cc32)cc1OCc1ccccc1C(F)(F)F [GSK1030061A]  1.028
26. Nc1n[nH]c2cc(-c3ccccn3)ccc12 [GSK2189892A]  1.03
27. CS(=O)(=O)CCNCc1cc(-c2cc3c(Nc4ccc(OCc5cccc(F)c5)c(Cl)c4)ncnc3s2)cs1 [GSK300014A]  1.033
28. Fc1ccc(-c2ncn(CCCN3CCOCC3)c2-c2ccncc2)cc1 [SB-210313]  1.039
29. C[C@@H](Oc1cc(-n2cnc3ccc(-c4ccncc4)cc32)sc1C(N)=O)c1ccccc1Cl [GSK483724A]  1.04
30. Cc1cc(-c2c(-c3ccc(F)cc3)ncn2CCCN2CCOCC2)nc(N)n1 [SB-222517]  1.044
31. Nc1nccc(-c2c(-c3ccc(F)cc3)ncn2CCCN2CCOCC2)n1 [SB-216385]  1.045
32. Fc1ccc(Nc2nccc(-c3c(-c4ccc(Cl)cc4)nn4ncccc34)n2)cc1F [GW829058X]  1.046
33. CCN1CCN(CCCC(=O)Nc2n[nH]c3nc(-c4ccc(O)cc4)c(Br)cc23)CC1 [SB-731579]  1.047
34. Cc1cccc(-c2nc(Nc3cccc(C(N)=O)c3)c3ccccc3n2)n1 [GW876019X]  1.051
35. COc1ccc(CNC(=O)c2ccc(-c3cc(-c4nnc(C)o4)ccc3C)cc2)cc1 [GW701032X]  1.056
36. NC(=O)c1cccc(Nc2nccc(Nc3cccc4[nH]ncc34)n2)c1 [GW782612X]  1.061
37. O=C(Nc1cccc(-c2nn3ccccc3c2-c2ccnc(Nc3cccc(F)c3)n2)c1)c1c(F)ccc(F)c1Cl [GSK357952A]  1.061
38. COc1ccc(Nc2nccc(N3CCC(NC(=O)c4cccc(NC(C)=O)c4)C3)n2)cc1 (stereo not drawn) [GSK1379732A]  1.077
39. O=C(Nc1n[nH]c2nc(-c3ccco3)c(Br)cc12)C1CC1 [SB-739452]  1.083
40. COc1cc2ncnc(Nc3ccc(OCc4ccccc4Br)c(Cl)c3)c2cc1OC [GI261590A]  1.09
41. O=C(Nc1n[nH]c2nc(-c3nccs3)c(Br)cc12)C1CCCC1 [SB-742609]  1.102
42. Cc1ccc(C(=O)NC2CCC2)cc1-c1ccc(C(=O)NCC2CC2)cc1 [GW782912X]  1.104
43. CCn1c(-c2nonc2N)nc2c(C#CC(C)(C)O)nc(OC[C@H](N)c3ccccc3)cc21 [GSK943949A]  1.114
44. NS(=O)(=O)c1ccc(-c2cc3ccncc3cc2OCc2ccccc2)cc1 [GSK953913A]  1.131
45. COc1ccc(-c2cc3c(N)ncnc3o2)cc1 [GW642138X]  1.142
46. Nc1nc(-c2ccccn2)c(-c2ccc3ncccc3n2)s1 [GW693481X]  1.166
47. NC(=O)c1sc(-n2cnc3ccc(C(F)(F)F)cc32)cc1OCc1ccccc1Br [GW853606X]  1.175
48. Cc1cccc(-c2nc(Nc3ccncc3)c3sccc3n2)n1 [GW869641X]  1.179
49. Cn1c(-c2nonc2N)nc2cnccc21 [SB-736290]  1.181
50. COc1cc2ncn(-c3cc(OCc4ccccc4S(C)(=O)=O)c(C#N)s3)c2cc1OC [GSK319347A]  1.184
51. COC(=O)Nc1nc2ccc(Oc3ccc(NC(=O)Nc4cccc(Cl)c4)cc3)cc2[nH]1 [GW589961A]  1.185
52. NC[C@H](CC1CCCCC1)NC(=O)c1ccc(-c2ccnc3[nH]ccc23)s1 [GSK1581428A]  1.197
53. Cc1ccc(O)cc1Nc1ccnc2ccc(S(C)(=O)=O)cc12 [GW559768X]  1.199
54. NS(=O)(=O)c1ccc(N/N=C2\C(=O)Nc3ccc(C(=O)NCCCn4ccnc4)cc32)cc1 [GW290597X]  1.214
55. COc1ccc(Nc2nccc(N3CCC(NC(=O)Nc4cccc(OC)c4)C3)n2)cc1 (stereo not drawn) [GSK1379742A]  1.221
56. Cc1cccc(-c2n[nH]cc2-c2ccc3ncccc3n2)n1 [GW786460X]  1.226
57. CN1CCN(Cc2ccc(NC(=O)Nc3ccc(N(C)c4ccnc(Nc5ccc(CS(C)(=O)=O)cc5)n4)cc3)cc2)CC1 [GW827654A]  1.248
58. Nc1nccc(-c2c(-c3ccc(F)cc3)nn3cc(C(F)(F)F)ccc23)n1 [GW568326X]  1.261
59. COc1ccc(NC(=O)c2ccoc2)cc1-c1ccc(C(=O)NCC2CC2)cc1 [GW810437X]  1.267
60. O=C(Nc1cccc(-c2nn3ncccc3c2-c2ccnc(Nc3ccccc3)n2)c1)c1c(F)cccc1F [GSK198271A]  1.278
61. O=C(NCCNc1ccnc(Nc2ccc(F)cc2)n1)Nc1ccccc1F [GSK1379880A]  1.302
62. O=C(Nc1n[nH]c2nc(-c3nccs3)c(Br)cc12)C1CC1 [SB-742251]  1.325
63. CNc1nc(-c2ccc3c(N)n[nH]c3c2)cc(N2C[C@@H](C(=O)NC3CCCCC3)OC[C@H]2C)n1 [GSK2375584A]  1.379
64. Nc1ncc(-c2cccnc2)c2scc(-c3ccc4c(c3)CCN4C(=O)Cc3ccccc3)c12 [GSK683281A]  1.385
65. COc1cc2ncn(-c3cc(OCc4sccc4Cl)c(C(N)=O)s3)c2cc1OC [GSK448459A]  1.439
66. COC(=O)Nc1nc2ccc(Oc3ccc(NC(=O)Nc4cc(C(F)(F)F)ccc4F)cc3)cc2n1C [GW692089A]  1.505
67. COc1cc(Nc2nccc(N3CCC(NC(=O)c4cccc(C#N)c4)C3)n2)cc(OC)c1OC (stereo not drawn) [GSK1379751A]  1.563
68. c1ccc(-c2ccc3c(Nc4ccc5[nH]ncc5c4)ccnc3c2)nc1 [GW440137A]  1.678

— PMC4850295, “Using a Genetically Encoded Sensor to Identify Inhibitors of Toxoplasma gondii Ca^2+ Signaling” (The Journal of Biological Chemistry, 2016)
